Test results reported in patent US20100136034A1, “NOVEL MULTIMERIC MOLECULES, A PROCESS FOR PREPARING THE SAME AND THE USE THEREOF FOR MANUFACTURING MEDICINAL DRUGS” (CENTRE NATIONAL DE LA RECHERCHE SCIENTIFIQUE, priority 2007, published 2010).
Non-standard residues stand in square brackets, D forms with d. No end group written: not given here. Ahx = NCCCCCC(=O)O

Columns and labels:
[1] = system: murine spleen B cells; experiment: Spleen B cell proliferation ([3H]-thymidine uptake); type: cell-based, BALB/c mice; details: ligand alone, without anti-CD40 antibody 3/23; 72 hours; FIG. 5B
Procedure: Spleens were surgically removed from BALB/c mice aged from 5 to 12 weeks. Spleen B cells were prepared by positive selection using magnetic beads coated with monoclonal anti-CD19 antibodies (MACS, Milteny biotech, Germany). This fraction contains over 95% of B220^+ cells. B cells (3×10^6/ml) were next cultured in RPMI 1640 medium supplemented with 10% complement depleted FBS, gentamycin (10 μg/ml), 25 mM HEPES and […] β-mercaptoethanol in presence of CD40L analogs. Cells were pulsed with 1 μCi/well of tritiated thymidine (ICN, Irvine, Calif.) for the last 20 hours of culturing and the uptake of [^3H]-thymidine as expressed in cpm was measured after 72 hours using a Matrix 9600 model direct 13 counter (Packard, Meriden, Conn.). Results (FIG. 5B) are expressed as a stimulation index corresponding to cpm obtained for cultures with CD40L analogs divided by cpm obtained for cultures without CD40L analogs. Mice used in this study were raised in our animal housing facilities which are licensed by the french veterinary administration under number D-67-482-2.

[2] = system: Burkitt's lymphoma RAJI cells; experiment: Induction of apoptosis in Burkitt's lymphoma RAJI cells (drop in mitochondrial transmembrane potential, DiOC6(3), flow cytometry); type: cell-based; details: 16 hours incubation with CD40L analog, FIG. 5A
Procedure: Burkitt's lymphoma (RAJI) was cultured in RPMI 1640 medium (Cambrex Bioscience, Verviers, Belgium) supplemented with 10% decomplemented foetal calf serum (FBS) and gentamycin (10 μg/ml). For assaying apoptosis, cells (1×10^6/ml) were incubated at 37° C. in 96-well plates, at the specified concentrations of CD40L analogs, in a final volume of 200 μl. After incubation for 16 hours, cell apoptosis was measured as described herein below.
To this end, cells were pulsed with DiOC6(3) (Interchim, Montluçon, France)) at a final concentration of 40 nM for the last 45 minutes of culturing.
Cells were subsequently washed, resuspended in 300 μl of PBS and analyzed by flow cytometry. Results (FIG. 5A) are expressed in percentage of specific apoptosis according the following formula: % of specific apoptosis=[(% of dead treated cells−% of dead control cells)×100]/(100−% de dead control cells).
Cells were analyzed by a FACSCalibur® instrument. At least 25000 pulse is events were acquired for each experiment using the CellQuest 3.3 software (Becton Dickinson, Pont de Claix, France) and data were analyzed using the WinMDI 2.8 software (Joseph Trotter, Scripps Research Institute, http://facs.scripps.edu/software.html).

## L41: dimeric ligand by click chemistry: dimerized macrocycle IV.25 coupled to pentapeptide P1 (Lys-Gly-Tyr-Tyr-Ahx), deprotected (peptide KGYY[Ahx]; chain AKKKAK; also: dimerized macrocycle IV.25 (cyclised hexapeptide) joined by click chemistry (triazole) to pentapeptide P1 (Lys-Gly-Tyr-Tyr-Ahx), D-residues and non-natural residues not placed)
[1]
  B cell proliferation (stimulation index, [3H]-thymidine uptake): induces alone murine spleen B cell proliferation
[2]
  percentage of specific apoptosis: induces a Burkitt lymphoma (RAJI) specific apoptosis percentage
